We go through 37 molecules from patent publication US12630532B2, “Indole-substituted quinolines and their combination with Plk1 inhibitors for the treatment of cancer” (UNIVERSITY OF KENTUCKY RESEARCH FOUNDATION, priority 2021, dated 2026).

The test system of the assay is LS174T cells. The assay can be described thus: Cell proliferation inhibition assay (5 days, cell counting). In kind it is cell-based. The following applies: for inhibition at 0.3 µM / inhibition at 1 µM / inhibition at 3 µM / inhibition at 0.062 µM / inhibition at 0.125 µM / inhibition at 0.25 µM / inhibition at 0.5 µM / IC50: Homo sapiens, LS174T; for inhibition at 0.3 µM: read-out: Inhibition % on LS174T cells Proliferation 0.3 uM Inhib. %; for inhibition at 1 µM: read-out: Inhibition % on LS174T cells Proliferation 1 uM Inhib. %; for inhibition at 3 µM: read-out: Inhibition % on LS174T cells Proliferation 3 uM Inhib. %; for inhibition at 0.062 µM / inhibition at 0.125 µM / inhibition at 0.25 µM / inhibition at 0.5 µM: 120 h; for inhibition at 0.062 µM: 62 nM; for inhibition at 0.125 µM: 125 nM; for IC50: dose response studies, read-out: IC50 values in cell proliferation assays. The procedure: Cell proliferation inhibition assays were done following a previous report (32). Cancer cells were seeded into 24-well plates at a density of 20,000 cells per well in 1 mL of culture medium and were cultured overnight at 37° C. Compounds and the vehicle control (DMSO) were added to the cells. After 5 days, the medium was removed, and 100 μL of trypsin was added. The cells were resuspended in phosphate-buffered saline (PBS) and were counted by Vi-CELL XR 2.03 (Beckman Coulter, Inc. USA). The ratio R of the number of viable cells in the compound treatment group to the number of viable cells in DMSO treatment group was taken as relative growth, and the percentage growth inhibition was calculated as (1−R)*100.

Turning to `Nc1nc2cc(N3CCCCC3)ccc2cc1-c1ccccc1F` [LMK-5-286], the inhibition at 0.3 µM is 21.9%, the inhibition at 1 µM came to 96% and the inhibition at 3 µM worked out at 97%.
For `Nc1nc2cc(N3CCOCC3)ccc2cc1-c1cc(Cl)cc(Cl)c1` [LMK-5-276], the inhibition at 1 µM came out at 35% and the inhibition at 3 µM is 65.2%.
For the setting “5 days”, `Nc1nc2cc(N3CCC(c4ccccc4)CC3)ccc2cc1-c1ccccc1F` [LMK-6-89] had an inhibition at 0.062 µM of 2 ± 3% and an inhibition at 0.125 µM of 20 ± 0.6%. Further, for the setting “250 nM, 5 days”, the inhibition at 0.25 µM was found to be 23 ± 3.8%. The inhibition at 0.5 µM (500 nM, 5 days) came to 89 ± 1%.
Under “5 days”, `Cn1cc(-c2cc3ccc(N4CCCCC4)cc3nc2N)c2ccccc21` [ISQ-2, 3-(1-Methyl-1H-indol-3-yl)-7-(piperidin-1-yl)quinolin-2-amine] yielded an inhibition at 0.062 µM of 8.2 ± 5.6% and an inhibition at 0.125 µM of 28 ± 4.6%. Besides, the inhibition at 0.25 µM (250 nM, 5 days) was 55 ± 0.5%. Moreover, the inhibition at 0.5 µM (500 nM, 5 days) was determined as 97 ± 0.4%.
`Cn1cc(-c2cc3ccc(N4CCC(c5ccncc5)CC4)cc3nc2N)c2ccccc21` [ISQ-10, 3-(1-Methyl-1H-indol-3-yl)-7-(4-(pyridin-4-yl)piperidin-1-yl)quinolin-2-amine]: the IC50 is about 100 nM. Moreover, the “percentage inhibition of LS174T cell proliferation at 500 nM, compared among ISQs (FIG. 2B)” value (from here on “percentage inhibition”) (500 nM) was “comparable to the N,N-dimethylamino group in ISQ-1”. Further, for the setting “5 days”, the inhibition at 0.062 µM amounted to 21 ± 5.7% and the inhibition at 0.125 µM was found to be 84 ± 2.7%. Also, the inhibition at 0.25 µM (250 nM, 5 days) is 99 ± 13.1%. The same molecule displayed an inhibition at 0.5 µM (500 nM, 5 days) of 99 ± 0.1%.
As to `CN(C)c1ccc2cc(-c3nc(-c4ccc(Br)cc4)cs3)c(N)nc2c1` [LMK-5-66], the inhibition at 1 µM was determined as 45% and the inhibition at 3 µM was 98.9%.
For `COc1ccc2nc(-c3cc4ccc(N(C)C)cc4nc3N)sc2c1` [LMK-5-62], the inhibition at 3 µM was determined as 85.5%.
Molecule `CC(C)C1CCN(c2ccc3cc(-c4cn(C)c5ccccc45)c(N)nc3c2)CC1` [ISQ-4, 7-(4-Isopropylpiperidin-1-yl)-3-(1-methyl-1H-indol-3-yl)quinolin-2-amine] gave an inhibition at 0.5 µM (500 nM, 5 days) of 36 ± 0.9%.
`Cn1cc(-c2cc3ccc(N4CCC(CO)CC4)cc3nc2N)c2ccccc21` [ISQ-8, (1-(2-Amino-3-(1-methyl-1H-indol-3-yl)quinolin-7-yl)piperidin-4-yl)methanol]: the IC50 is about 100 nM. Also, under “500 nM”, the “percentage inhibition” value is listed as “comparable to the N,N-dimethylamino group in ISQ-1”. Besides, for the setting “5 days”, the inhibition at 0.062 µM is 20 ± 9% and the inhibition at 0.125 µM worked out at 59 ± 2.7%. Also, the inhibition at 0.25 µM (250 nM, 5 days) was found to be 97 ± 0.2%. Under “500 nM, 5 days”, this molecule registered an inhibition at 0.5 µM of 98 ± 0.6%.
Turning to `CN1CCN(c2ccc3cc(-c4cc(Cl)cc(Cl)c4)c(N)nc3c2)CC1` [LMK-5-278], the inhibition at 1 µM is 27.9% and the inhibition at 3 µM was 87.7%.
On the same counts, the results for `CN1CCN(c2ccc3cc(-c4cn(C)c5ccccc45)c(N)nc3c2)CC1` [LMK-5-282] are 25.2% and 83.7%.
For the molecule `COCC1CCN(c2ccc3cc(-c4ccccc4F)c(N)nc3c2)CC1` [LMK-6-109], for the setting “5 days”, the inhibition at 0.062 µM came out at 16 ± 8.4% and the inhibition at 0.125 µM is 29 ± 0.3%. This molecule also returned an inhibition at 0.25 µM (250 nM, 5 days) of 70 ± 8.8%. This molecule had an inhibition at 0.5 µM (500 nM, 5 days) of 94 ± 0.1%.
Regarding `CNc1ccc2cc(-c3cn(C)c4ccccc34)c(N)nc2c1` [VMS-8-67], the inhibition at 3 µM was 96.9%.
`CC(C)C1CCN(c2ccc3cc(-c4ccccc4F)c(N)nc3c2)CC1` [LMK-6-84]: the inhibition at 0.5 µM (500 nM, 5 days) came out at 79 ± 5.7%.
As for `CN(C)c1ccc2cc(-c3nc4cc(C(C)(C)C)ccc4o3)c(N)nc2c1` [LMK-5-60], the inhibition at 3 µM amounted to 91.5%.
Under “5 days”, `N#CC1CCN(c2ccc3cc(-c4ccccc4F)c(N)nc3c2)CC1` [LMK-6-99] showed an inhibition at 0.062 µM of 2 ± 0.2% and an inhibition at 0.125 µM of 9 ± 2.2%. This molecule also showed an inhibition at 0.25 µM (250 nM, 5 days) of 17 ± 0.1%. In addition, the inhibition at 0.5 µM (500 nM, 5 days) was found to be 64 ± 3.5%.
Consider `Nc1nc2cc(N3CCOCC3)ccc2cc1-c1ccccc1F` [LMK-5-284], for which the inhibition at 1 µM stood at 20.6% and the inhibition at 3 µM was found to be 85.6%.
On to `CN(C)c1ccc2cc(-c3nc4ccccc4s3)c(N)nc2c1` [VMS-7-1], for which the inhibition at 3 µM amounted to 95.3%.
For `Nc1nc2cc(N3CCC(CO)CC3)ccc2cc1-c1ccccc1F` [LMK-6-117], for the setting “5 days”, the inhibition at 0.062 µM worked out at 12 ± 1.4% and the inhibition at 0.125 µM was 12 ± 0.7%. Moreover, where the note is “250 nM, 5 days”, the inhibition at 0.25 µM stood at 32 ± 10.5%. This molecule showed an inhibition at 0.5 µM (500 nM, 5 days) of 59 ± 0.3%.
`CN(C)c1ccc2cc(-c3coc4ccccc34)c(N)nc2c1` [VMS-7-7]: the inhibition at 0.3 µM was 87.2%, the inhibition at 1 µM worked out at 97.8% and the inhibition at 3 µM was determined as 96.8%.
Take `CN(C)c1ccc2cc(-c3cc(Cl)cc(Cl)c3)c(N)nc2c1` [VMS-4-103]: the inhibition at 3 µM came out at 86.4%.
Still for that read-out and setting: to `CN(C)c1ccc2cc(-c3nc4ccc(F)cc4s3)c(N)nc2c1` [LMK-5-52] belongs 97%.
`Nc1nc2cc(N3CCC(Cc4ccccc4)CC3)ccc2cc1-c1ccccc1F` [LMK-6-91]: the inhibition at 0.5 µM (500 nM, 5 days) came out at 14 ± 1.2%.
For the setting “500 nM, 5 days”, `Cn1cc(-c2cc3ccc(N4CCC(Cc5ccccc5)CC4)cc3nc2N)c2ccccc21` [ISQ-5, 7-(4-Benzylpiperidin-1-yl)-3-(1-methyl-1H-indol-3-yl)quinolin-2-amine] showed an inhibition at 0.5 µM of 21 ± 3.9%.
Consider `CN(C)c1ccc2cc(-c3nc(-c4ccccc4)cs3)c(N)nc2c1` [LMK-5-67], for which the inhibition at 1 µM was 96.9% and the inhibition at 3 µM amounted to 99.8%.
`COCC1CCN(c2ccc3cc(-c4cn(C)c5ccccc45)c(N)nc3c2)CC1` [ISQ-9, 7-(4-(Methoxymethyl)piperidin-1-yl)-3-(1-methyl-1H-indol-3-yl)quinolin-2-amine]: the IC50 is about 100 nM. For the same molecule, the “percentage inhibition” value (500 nM) was “comparable to the N,N-dimethylamino group in ISQ-1”. Moreover, under “5 days”, the inhibition at 0.062 µM amounted to 12 ± 1.9% and the inhibition at 0.125 µM was 55 ± 2.3%. In addition, the inhibition at 0.25 µM (250 nM, 5 days) was 98%. Besides, the inhibition at 0.5 µM (500 nM, 5 days) is 99 ± 0.1%.
`Cn1cc(-c2cc3ccc(N4CCC(c5ccccc5)CC4)cc3nc2N)c2ccccc21` [ISQ-6, 3-(1-Methyl-1H-indol-3-yl)-7-(4-phenylpiperidin-1-yl)quinolin-2-amine]: the inhibition at 0.5 µM (500 nM, 5 days) worked out at 56 ± 13.1%.
For “3-(1-Methyl-1H-indol-3-yl)-7-(4-methylpiperazin-1-yl)quinolin-2-amine [ISQ-3]”, the “Inhibition % on LS174T cells Proliferation 250 nM” value (250 nM, 5 days) is 27 ± 14%. Besides, the “Inhibition % on LS174T cells Proliferation 0.3 uM Inhib. %” value (0.3 uM) is 73.9%. In addition, the “Inhibition % on LS174T cells Proliferation 500 nM” value (500 nM, 5 days) stood at 89 ± 2.1%. Moreover, the “Inhibition % on LS174T cells Proliferation 1 uM Inhib. %” value (1 uM) is reported as 95.5%. Besides, the “Inhibition % on LS174T cells Proliferation 3 uM Inhib. %” value (3 uM) came out at 99.7%.
With `CN(C)c1ccc2cc(-c3csc4ccccc34)c(N)nc2c1` [VMS-7-3], the inhibition at 3 µM was determined as 96.7%.
In the case of `Nc1nc2cc(N3CCCC3)ccc2cc1-c1cc(Cl)cc(Cl)c1` [LMK-5-280], the inhibition at 0.3 µM is 31%, the inhibition at 1 µM stood at 93.1% and the inhibition at 3 µM was 97.7%.
Turning to `COc1ccc(-c2csc(-c3cc4ccc(N(C)C)cc4nc3N)n2)cc1` [LMK-5-68], the inhibition at 1 µM was found to be 24.2% and the inhibition at 3 µM was found to be 94.3%.
On to `CN(C)c1ccc2cc(-c3nc4ccc(Cl)cc4s3)c(N)nc2c1` [LMK-5-55], for which the inhibition at 3 µM was 97.6%.
For `Cn1cc(-c2cc3ccc(N4CCOCC4)cc3nc2N)c2ccccc21` [LMK-5-281], the inhibition at 0.3 µM was 30.9%, the inhibition at 1 µM is 93.7% and the inhibition at 3 µM amounted to 98.1%.
On to `CNc1ccc2cc(-c3cc(Cl)cc(Cl)c3)c(N)nc2c1` [VMS-8-65], for which the inhibition at 3 µM was 97.2%.
With `CN(C)c1ccc2cc(-c3ccc(Cl)c(Cl)c3)c(N)nc2c1` [VMS-4-57], the inhibition at 0.3 µM was found to be 26.7%, the inhibition at 1 µM came out at 57.8% and the inhibition at 3 µM was 74.3%.
In the case of `Nc1nc2cc(N3CCCCC3)ccc2cc1-c1cc(Cl)cc(Cl)c1` [LMK-5-279], the inhibition at 1 µM worked out at 46.6% and the inhibition at 3 µM was determined as 87.6%.
In the case of `COc1ccc2c(c1)c(-c1cc3ccc(N(C)C)cc3nc1N)cn2C` [VMS-7-29], the inhibition at 3 µM was 99.3%.
